In brackets after ≈: the same amount, converted by molar mass.
How the values were obtained:
Assay in all cases: Minimum inhibitory concentration (MIC), Heart Infusion agar
Format in all cases: cell-based
Ser. marcescens W-35 = details: Serratia marcescens, W35, 20 h, Ser. marcescens W-35; 10^6 cells/ml; 20 hours, 37° C. (Table 1); read-out: minimum inhibitory concentration (MIC)
Experimental: (§1) Antibacterial activities of the representative compounds (Ib) of the 7α-methoxycephalosporins according to this invention are shown in Table 1. [drawing 20]
The figures given in Table 1 represent the minimum inhibitory concentration (MIC in mcg/ml) of each compound, which was determined according to the method described in "Chemotherapy (Society of Chemotherapy, Japan), Vol. 16, 98-99 (1968)": A culture obtained by cultivating the test bacterium in a Heart Infusion broth (Eiken Kagaku Co.) was inoculated into a Heart Infusion agar medium (Eiken Kagaku Co.). After 20 hours of the incubation at 37° C., the growth of the bacterium was inspected to determine the minimum inhibitory concentration (MIC in mcg/ml). […]
(§2) (1) Minimum inhibitory concentration (MIC in mcg/ml).

Ent. cloacae IID977 = details: Enterobacter cloacae; Ent. cloacae IID977; 10^6 cells/ml; 20 hours, 37° C.; read-out: minimum inhibitory concentration (MIC)
Experimental: as §1
(§3) The figures given in Table 1 represent the minimum inhibitory concentration (MIC in mcg/ml) of each compound, which was determined according to the method described in "Chemotherapy (Society of Chemotherapy, Japan), Vol. 16, 98-99 (1968)": A culture obtained by cultivating the test bacterium in a Heart Infusion broth (Eiken Kagaku Co.) was inoculated into a Heart Infusion agar medium (Eiken Kagaku Co.). After 20 hours of the incubation at 37° C., the growth of the bacterium was inspected to determine the minimum inhibitory concentration (MIC in mcg/ml). The inoculation rate of the bacterium was 10^4 cells/plate (10^6 cells/ml).
as §2

[1] = tested on: C. freundii GN-346 (Cephalosporinase-producing bacterium); details: Citrobacter freundii, GN346; C. freundii GN-346; 10^6 cells/ml; 20 hours, 37° C.; read-out: minimum inhibitory concentration (MIC)
Experimental: as §1, §3, §2

Klebsiella spp. Y-72 = details: SPP.Y72; Klebsiella spp. Y-72; 10^6 cells/ml; 20 hours, 37° C.; read-out: minimum inhibitory concentration (MIC)
Experimental: as §1, §3, §2

K. pneumoniae Y-50 = details: Klebsiella pneumoniae, Y50; K. pneumoniae Y-50; 10^6 cells/ml; 20 hours, 37° C.; read-out: minimum inhibitory concentration (MIC)
Experimental: as §1, §3, §2

Ser. marcescens W-8 = details: Serratia marcescens, W8; Ser. marcescens W-8; 10^6 cells/ml; 20 hours, 37° C.; read-out: minimum inhibitory concentration (MIC)
Experimental: as §1, §3, §2

[2] = tested on: Acinetobacter caloaceticus A-6; details: A6; Acinetobacter caloaceticus A-6; 10^6 cells/ml; 20 hours, 37° C.; read-out: minimum inhibitory concentration (MIC)
Experimental: as §1, §3, §2

Prot. vulgaris GN-76 = details: Proteus vulgaris, GN76; Prot. vulgaris GN-76; 10^6 cells/ml; 20 hours, 37° C.; read-out: minimum inhibitory concentration (MIC)
Experimental: as §1, §3, §2

Ps. aeruginosa IFO-3445 = details: Pseudomonas aeruginosa, IFO3445; Ps. aeruginosa IFO-3445; 10^6 cells/ml; 20 hours, 37° C.; read-out: minimum inhibitory concentration (MIC)
Experimental: as §1, §3, §2

Citrobacter N-7 = details: N7; Citrobacter N-7; 10^6 cells/ml; 20 hours, 37° C.; read-out: minimum inhibitory concentration (MIC)
Experimental: as §1, §3, §2

E. coli NIHJ = details: Escherichia coli; E. coli NIHJ; 10^6 cells/ml; 20 hours, 37° C.; read-out: minimum inhibitory concentration (MIC)
Experimental: as §1, §3, §2

Ser. marcescens IID620 = details: Serratia marcescens; Ser. marcescens IID620; 10^6 cells/ml; 20 hours, 37° C.; read-out: minimum inhibitory concentration (MIC)
Experimental: as §1, §3, §2

Ps. aeruginosa S-68 = details: Pseudomonas aeruginosa, S68; Ps. aeruginosa S-68; 10^6 cells/ml; 20 hours, 37° C.; read-out: minimum inhibitory concentration (MIC)
Experimental: as §1, §3, §2

[3] = tested on: S. aureus F-19 (Penicillinase-producing bacterium); details: Staphylococcus aureus; S. aureus F-19; 10^6 cells/ml; 20 hours, 37° C.; read-out: minimum inhibitory concentration (MIC)
Experimental: as §1, §3, §2

| MIC (Ser. marcescens W-35) [µg/mL] | MIC (Ent. cloacae IID977) [µg/mL] | MIC [1] [µg/mL] | MIC (Klebsiella spp. Y-72) [µg/mL] | MIC (K. pneumoniae Y-50) [µg/mL] | MIC (Ser. marcescens W-8) [µg/mL] | MIC [2] [µg/mL] | MIC (Prot. vulgaris GN-76) [µg/mL] | MIC (Ps. aeruginosa IFO-3445) [µg/mL] | MIC (Citrobacter N-7) [µg/mL] | MIC (E. coli NIHJ) [µg/mL] | MIC (Ser. marcescens IID620) [µg/mL] | MIC (Ps. aeruginosa S-68) [µg/mL] | MIC [3] [µg/mL] | Compound |
| --- | --- | --- | --- | --- | --- | --- | --- | --- | --- | --- | --- | --- | --- | --- |
| 6.25 (≈ 9 µM) | 50 (≈ 72 µM) | 25 (≈ 36 µM) | 3.13 (≈ 4.51 µM) | 0.78 (≈ 1.12 µM) | 50 (≈ 72 µM) | 12.5 (≈ 18 µM) | 0.78 (≈ 1.12 µM) | 12.5 (≈ 18 µM) | 3.13 (≈ 4.51 µM) | ≤ 0.1 | 0.2 (≈ 0.288 µM) | 12.5 (≈ 18 µM) | 6.25 (≈ 9 µM) | CCN1CCN(C(=O)NC(C(=O)N[C@]2(OC)C(=O)N3C(C(=O)O)=C(CSc4nnnn4CCN)CS[C@@H]32)c2cccs2)C(=O)C1=O (some centres unmarked) |
|  | 25 (≈ 37.8 µM) |  |  | 0.2 (≈ 0.302 µM) |  |  | 3.13 (≈ 4.73 µM) | 25 (≈ 37.8 µM) |  | ≤ 0.1 | ≤ 0.1 |  | 3.13 (≈ 4.73 µM) | C=Cn1nnnc1SCC1=C(C(=O)O)N2C(=O)[C@](NC(=O)C(NC(=O)N3CCN(CC)C(=O)C3=O)c3ccco3)(OC)[C@H]2SC1 (some centres unmarked) |
| 50 (≈ 69.2 µM) | 25 (≈ 34.6 µM) | 25 (≈ 34.6 µM) | 12.5 (≈ 17.3 µM) | 0.78 (≈ 1.08 µM) | 50 (≈ 69.2 µM) | 12.5 (≈ 17.3 µM) | 1.56 (≈ 2.16 µM) | 50 (≈ 69.2 µM) | 6.25 (≈ 8.65 µM) | ≤ 0.1 | 0.39 (≈ 0.54 µM) | 25 (≈ 34.6 µM) | 6.25 (≈ 8.65 µM) | CCN1CCN(C(=O)NC(C(=O)N[C@]2(OC)C(=O)N3C(C(=O)O)=C(CSc4nnnn4CCN(C)C)CS[C@@H]32)c2cccs2)C(=O)C1=O (some centres unmarked) |
|  | 25 (≈ 36.7 µM) | 50 (≈ 73.3 µM) | 1.56 (≈ 2.29 µM) | 0.2 (≈ 0.293 µM) | 100 (≈ 147 µM) | 25 (≈ 36.7 µM) | 0.78 (≈ 1.14 µM) | 12.5 (≈ 18.3 µM) | 1.56 (≈ 2.29 µM) | ≤ 0.1 | ≤ 0.1 | 25 (≈ 36.7 µM) | 3.13 (≈ 4.59 µM) | CCN1CCN(C(=O)NC(C(=O)N[C@]2(OC)C(=O)N3C(C(=O)O)=C(CSc4nnnn4C)CS[C@@H]32)c2csc(N)n2)C(=O)C1=O (some centres unmarked) |
|  |  |  |  |  |  | 25 (≈ 40 µM) | 3.13 (≈ 5 µM) | 25 (≈ 40 µM) |  | ≤ 0.1 | 0.39 (≈ 0.623 µM) |  | 6.25 (≈ 9.99 µM) | CCN1CCN(C(=O)NC(C(=O)N[C@]2(OC)C(=O)N3C(C(=O)O)=C(COC(C)=O)CS[C@@H]32)c2csc(N)n2)C(=O)C1=O (some centres unmarked) [OCOCH3] |
|  | 25 (≈ 34.6 µM) | 25 (≈ 34.6 µM) |  | 0.78 (≈ 1.08 µM) | 50 (≈ 69.2 µM) | 25 (≈ 34.6 µM) | 3.13 (≈ 4.33 µM) | 50 (≈ 69.2 µM) | 3.13 (≈ 4.33 µM) | ≤ 0.1 | 0.2 (≈ 0.277 µM) |  | 6.25 (≈ 8.65 µM) | CCN1CCN(C(=O)NC(C(=O)N[C@]2(OC)C(=O)N3C(C(=O)O)=C(CSc4nnn(CCN(C)C)n4)CS[C@@H]32)c2cccs2)C(=O)C1=O (some centres unmarked) |
|  | 25 (≈ 36.8 µM) |  |  | 0.2 (≈ 0.294 µM) |  |  | 1.56 (≈ 2.3 µM) | 12.5 (≈ 18.4 µM) |  | ≤ 0.1 | ≤ 0.1 |  | 6.25 (≈ 9.2 µM) | CCN1CCN(C(=O)NC(C(=O)N[C@]2(OC)C(=O)N3C(C(=O)O)=C(CSc4nnnn4CCO)CS[C@@H]32)c2ccco2)C(=O)C1=O (some centres unmarked) |
| 12.5 (≈ 19.2 µM) | 25 (≈ 38.5 µM) | 25 (≈ 38.5 µM) | 6.25 (≈ 9.62 µM) | 0.2 (≈ 0.308 µM) | 100 (≈ 154 µM) | 12.5 (≈ 19.2 µM) | 0.78 (≈ 1.2 µM) | 12.5 (≈ 19.2 µM) |  | ≤ 0.1 | ≤ 0.1 | 25 (≈ 38.5 µM) | 6.25 (≈ 9.62 µM) | CCN1CCN(C(=O)NC(C(=O)N[C@]2(OC)C(=O)N3C(C(=O)O)=C(CSc4nnnn4C)CS[C@@H]32)c2ccco2)C(=O)C1=O (some centres unmarked) |
| 12.5 (≈ 17.6 µM) | 12.5 (≈ 17.6 µM) |  | 1.56 (≈ 2.2 µM) | 0.39 (≈ 0.55 µM) | 25 (≈ 35.3 µM) | 6.25 (≈ 8.82 µM) | 0.78 (≈ 1.1 µM) | 12.5 (≈ 17.6 µM) | 3.13 (≈ 4.42 µM) | ≤ 0.1 | 0.2 (≈ 0.282 µM) | 12.5 (≈ 17.6 µM) | 3.13 (≈ 4.42 µM) | CCN1CCN(C(=O)NC(C(=O)N[C@]2(OC)C(=O)N3C(C(=O)O)=C(CSc4nnnn4CC(N)=O)CS[C@@H]32)c2cccs2)C(=O)C1=O (some centres unmarked) |
